# Biological target: T1, h5-HT4b (Homo sapiens, UniProt Q13639)
# T1 construct: expressed in transfected cells; host or cells: HEK 293 (clone 9), membrane preparation
# Experiment: 5HT4 antagonism: [3H]GR113808 binding to membranes of h5-HT4b-HEK 293 clone 9 cells
# Details: displacement of [3H]GR113808 0.1 nM, h5-HT4b-HEK 293 membranes, 30 min at 25° C.; read-out: pIC50 (5HT4 antagonistic data) (converted)
# How it was run: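 Membranes from h5-HT4b-HEK 293 clone 9 cells were incubated with [3H]GR113808 (0.1 nM as added) in 50 mM HEPES-NaOH pH 7.4 for 30 min at 25 °C. Non-specific binding was defined with a 5-HT4 agonist. Bound radioligand was separated by filtration over PEI-soaked GF/B filters.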
# T1 sequence (Q13639 whole entry): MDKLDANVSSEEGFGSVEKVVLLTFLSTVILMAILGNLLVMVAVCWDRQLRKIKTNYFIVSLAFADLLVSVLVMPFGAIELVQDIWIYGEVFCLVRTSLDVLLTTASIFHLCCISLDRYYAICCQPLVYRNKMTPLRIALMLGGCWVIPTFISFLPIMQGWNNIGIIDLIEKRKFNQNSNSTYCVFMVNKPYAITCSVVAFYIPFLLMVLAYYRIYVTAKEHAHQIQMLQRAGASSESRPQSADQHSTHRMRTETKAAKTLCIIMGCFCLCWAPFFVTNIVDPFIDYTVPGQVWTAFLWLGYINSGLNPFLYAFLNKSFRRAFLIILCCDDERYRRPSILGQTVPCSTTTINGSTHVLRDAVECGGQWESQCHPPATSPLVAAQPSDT
row,IC50,Structure (SMILES)
1,1.86 nM,Cc1cc2c(c(C(=O)NC[C@@H]3CCN(CCCNS(C)(=O)=O)C[C@H]3O)c1)OCCCO2 [compound 189]
2,269 nM,COCc1cc2c(c(C(=O)NC[C@@H]3CCNC[C@H]3O)c1)OCCCO2 [compound 190]
3,30.9 nM,Cc1cc2c(c(C(=O)NC[C@@H]3CCN(CCCC(=O)O)C[C@H]3O)c1)OCCCO2 [compound 192]
4,0.589 nM,Cc1cc2c(c(C(=O)NC[C@@H]3CCN(CCCCOc4ccc(S(N)(=O)=O)cc4)C[C@H]3O)c1)OCCCO2 [compound 194]
5,3.63 nM,CCCCN1CC[C@@H](CNC(=O)c2cc(OC)cc3c2OCCCO3)[C@H](O)C1 [compound 195]
6,0.427 nM,Cc1cc2c(c(C(=O)NC[C@@H]3CCN(CCCOc4ccc(S(N)(=O)=O)cc4)C[C@H]3O)c1)OCCCO2 [compound 196]
7,1.2 nM,Cc1cc2c(c(C(=O)NC[C@@H]3CCN(CCOc4ccc(S(N)(=O)=O)cc4)C[C@H]3O)c1)OCCCO2 [compound 198]
8,12.3 nM,CNCCCCN1CC[C@@H](CNC(=O)c2cc(OC)cc3c2OCCCO3)[C@H](O)C1 [compound 199]
9,14.5 nM,Cc1cc2c(c(C(=O)NC[C@@H]3CCN(CCC#N)C[C@H]3O)c1)OCCCO2 [compound 201]
10,1350 nM,CO[C@@H]1CNCC[C@H]1CNC(=O)c1cc(C#N)cc2c1OCCCO2 [compound 203]
11,83.2 nM,CO[C@@H]1CNCC[C@H]1CNC(=O)c1cc(C)cc2c1OCCCO2 [compound 204]
12,2.75 nM,Cc1cc2c(c(C(=O)NC[C@@H]3CCN(CCCS(C)(=O)=O)C[C@H]3O)c1)OCCCO2 [compound 205]
13,3.16 nM,COCCCN1CC[C@@H](CNC(=O)c2cc(C)cc3c2OCCCO3)[C@H](OC)C1 [compound 206]
14,37.2 nM,CO[C@@H]1CN(CCCO)CC[C@H]1CNC(=O)c1cc(C#N)cc2c1OCCCO2 [compound 207]
15,5.62 nM,CO[C@@H]1CN(CCCC#N)CC[C@H]1CNC(=O)c1cc(C#N)cc2c1OCCCO2 [compound 208]
16,17.8 nM,CCCCN1CC[C@@H](CNC(=O)c2cc(C#N)cc3c2OCCCO3)[C@H](OC)C1 [compound 209]
17,5.25 nM,CO[C@@H]1CN(CCCO)CC[C@H]1CNC(=O)c1cc(C)cc2c1OCCCO2 [compound 210]
18,0.813 nM,Cc1cc2c(c(C(=O)NC[C@@H]3CCN(CCCOC(C)C)C[C@H]3O)c1)OCCCO2 [compound 212]
19,2.63 nM,Cc1cc2c(c(C(=O)NC[C@@H]3CCN(CCCCCC(N)=O)C[C@H]3O)c1)OCCCO2 [compound 213]
20,2.34 nM,Cc1cc2c(c(C(=O)NC[C@@H]3CCN(CCC(N)=O)C[C@H]3O)c1)OCCCO2 [compound 214]
21,5.01 nM,CO[C@@H]1CN(CCCC#N)CC[C@H]1CNC(=O)c1cc(C)cc2c1OCCCO2 [compound 215]
22,44.7 nM,CNCCCCN1CC[C@@H](CNC(=O)c2cc(CC#N)cc3c2OCCCO3)[C@H](O)C1 [compound 216]
23,1.48 nM,Cc1cc2c(c(C(=O)NC[C@@H]3CCN(CCCCC(N)=O)C[C@H]3O)c1)OCCCO2 [compound 217]
24,0.776 nM,Cc1cc2c(c(C(=O)NC[C@@H]3CCN(CC4CC4)C[C@H]3O)c1)OCCCO2 [compound 218]
25,1.86 nM,CC(C)OCCCN1CC[C@H](CNC(=O)c2cc(C#N)cc3c2OCCCO3)[C@@H](O)C1 [compound 219]

row,IC50,Structure (SMILES)
1,2.51 nM,CC1(CCCN2CC[C@H](CNC(=O)c3cc(C#N)cc4c3OCCCO4)[C@@H](O)C2)OCCO1 [compound 220]
2,3.09 nM,CO[C@@H]1CN(CCCNS(C)(=O)=O)CC[C@H]1CNC(=O)c1cc(C)cc2c1OCCCO2 [compound 221]
3,1.32 nM,CCCCN1CC[C@@H](CNC(=O)c2cc(C)cc3c2OCCCO3)[C@H](OC)C1 [compound 222]
4,3.72 nM,CC(=O)CCCN1CC[C@@H](CNC(=O)c2cc(C#N)cc3c2OCCCO3)[C@H](O)C1 [compound 223]
5,1.78 nM,Cc1cc2c(c(C(=O)NC[C@@H]3CCN(CCCC(=O)N4CCCC4)C[C@H]3O)c1)OCCCO2 [compound 224]
6,0.501 nM,Cc1cc2c(c(C(=O)NC[C@@H]3CCN(CCCCNc4ncccn4)C[C@H]3O)c1)OCCCO2 [compound 230]
7,0.776 nM,Cc1cc2c(c(C(=O)NC[C@@H]3CCN(CCCCNc4nccnc4C)C[C@H]3O)c1)OCCCO2 [compound 231]
8,0.398 nM,Cc1cc2c(c(C(=O)NC[C@@H]3CCN(CCCc4ccncc4)C[C@H]3O)c1)OCCCO2 [compound 232]
9,0.355 nM,Cc1cc2c(c(C(=O)NC[C@@H]3CCN(CCCc4ccc(O)cc4)C[C@H]3O)c1)OCCCO2 [compound 233]
10,0.49 nM,COCCCCN1CC[C@@H](CNC(=O)c2cc(C)cc3c2OCCCO3)[C@H](O)C1 [compound 234]
11,37.2 nM,COCCCN1CC[C@@H](CNC(=O)c2cc(C#N)cc3c2OCCCO3)[C@H](OC)C1 [compound 235]
12,47.9 nM,CO[C@@H]1CN(CCCNS(C)(=O)=O)CC[C@H]1CNC(=O)c1cc(C#N)cc2c1OCCCO2 [compound 236]
13,1.45 nM,Cc1cc2c(c(C(=O)NC[C@@H]3CCN(CCCS(C)(=O)=O)C[C@H]3O)c1)OCCO2 [compound 237]
14,19.1 nM,COCCCCN1CCC(O)(CNC(=O)c2cc(C)cc3c2OCCCO3)CC1 [compound 239]
15,45.7 nM,Cc1cc2c(c(C(=O)NCC3(O)CCN(CCCC#N)CC3)c1)OCCCO2 [compound 240]
16,19.5 nM,Cc1cc2c(c(C(=O)NC[C@H]3CCN(CCCC#N)C[C@H]3O)c1)OCCCO2 [compound 241]
17,0.794 nM,CCCCN1CC[C@H](CNC(=O)c2cc(C)cc3c2OCCCO3)[C@H](O)C1 [compound 242]
18,9.33 nM,COCCCCN1CC[C@H](CNC(=O)c2cc(C)cc3c2OCCCO3)[C@H](O)C1 [compound 243]
19,2.14 nM,CCCCN1CCC(O)(CNC(=O)c2cc(C)cc3c2OCCCO3)CC1 [compound 245]
20,0.224 nM,COCCCCN1CC[C@@H](CNC(=O)c2cc(C)cc3c2OCCO3)[C@H](O)C1 [compound 248]
21,37.2 nM,Cc1cc2c(c(C(=O)NC[C@H]3CCN(CCCC(N)=O)C[C@H]3O)c1)OCCCO2 [compound 249]
22,0.759 nM,Cc1cc2c(c(C(=O)NC[C@@H]3CCN(CCCOC(=O)N4CCCC4)C[C@H]3O)c1)OCCCO2 [compound 250]
23,30.9 nM,COCCCN1CC[C@H](CNC(=O)c2cc(C)cc3c2OCCCO3)[C@@H](O)C1 [compound 251]
24,4.27 nM,N#Cc1cc2c(c(C(=O)NC[C@@H]3CCN(CCCC(N)=O)C[C@H]3O)c1)OCCCO2 [compound 252]
25,31.6 nM,Cc1cc2c(c(C(=O)NCC3(O)CCN(CCCC(N)=O)CC3)c1)OCCCO2 [compound 253]

# Test system: not listed separately
# Experiment: Metabolic stability: % metabolism after 60 minutes incubation with active liver microsomes
# Assay type: in vitro ADME
# Details: compound 5 μM, microsomes 1 mg/ml, NADPH-generating system, 60 minutes at 37 degrees Celsius; compound numbers of WO-00/37461
# Description: Sub-cellular tissue preparations were made according to Gorrod et al. (Xenobiotica 5:453-462, 1975) by centrifugal separation after mechanical homogenization of tissue. Liver tissue was rinsed in ice-cold 0.1 M Tris-HCl (pH 7.4) buffer to wash excess blood. Tissue was then blotted dry, weighed and chopped coarsely using surgical scissors. The tissue pieces were homogenized in 3 volumes of ice-cold 0.1 M phosphate buffer (pH 7.4).
# Tissue homogenates were centrifuged at 9000×g for 20 minutes at 4° C. The resulting supernatant was stored at −80° C. and is designated ‘S9’.
# The S9 fraction can be further centrifuged at 100.000×g for 60 minutes (4° C.). The resulting supernatant was carefully aspirated, aliquoted and designated ‘cytosol’. The pellet was re-suspended in 0.1 M phosphate buffer (pH 7.4) in a final volume of 1 ml per 0.5 g original tissue weight and designated ‘microsomes’.
# All sub-cellular fractions were aliquoted, immediately frozen in liquid nitrogen and stored at −80° C. until use.
# For the samples to be tested, the incubation mixture contained PBS (0.1M), compound (5 μM), microsomes (1 mg/ml) and a NADPH-generating system (0.8 mM glucose-6-phosphate, 0.8 mM magnesium chloride and 0.8 Units of glucose-6-phosphate dehydrogenase). Control samples contained the same material but the microsomes were replaced by heat inactivated (10 minutes at 95 degrees Celsius) microsomes. Recovery of the compounds in the control samples was always 100%.
# The mixtures were preincubated for 5 minutes at 37 degrees Celsius. The reaction was started at time point zero (t=0) by addition of 0.8 mM NADP and the samples were incubated for 60 minutes (t=60). The reaction was terminated by the addition of 2 volumes of DMSO. Then the samples were centrifuged for 10 minutes at 900×g and the supernatants were stored at room temperature for no longer as 24 hours before analysis. All incubations were performed in duplo. Analysis of the supernatants was performed with LC-MS analysis. Elution of the samples was performed on a Xterra MS C18 (50×4.6 mm, 5 μm, Waters, US). An Alliance 2790 (Supplier: Waters, US) HPLC system was used. Elution was with buffer A (25 mM ammoniumacetate (pH 5.2) in H2O/acetonitrile (95/5)), solvent B being acetonitrile and solvent C methanol at a flow rate of 2.4 ml/min. The gradient employed was increasing the organic phase concentration from 0% over 50% B and 50% C in 5 min up to 100% B in 1 minute in a linear fashion and organic phase concentration was kept stationary for an additional 1.5 minutes. Total injection volume of the samples was 25 μl.
# A Quatro triple quadrupole mass spectrometer fitted with and ESP source was used as detector. The source and the desolvation temperature were set at 120 and 350° C. respectively and nitrogen was used as nebuliser and drying gas. Data were acquired in positive scan mode (single ion reaction). Cone voltage was set at 10 V and the dwell time was 1 second.
# Metabolic stability was expressed as % metabolism of the compound after 60 minutes (equation given as example) of incubation in the presence of active microsomes (E(act))
row,% metabolised compound (comparative structures of WO-00/37461),Structure (SMILES)
1,30%,"COCCCN1CC[C@@H](CNC(=O)c2cc(Cl)cc3c2OCCO3)[C@H](O)C1 [WO-00/37461 Co. No. 67, reference compound]"
2,10%,"O=C(NC[C@@H]1CCN(CCCCO)C[C@H]1O)c1cc(Cl)cc2c1OCCO2 [WO-00/37461 Co. No. 68, reference compound]"
3,50.5%,"N#CCCCN1CC[C@@H](CNC(=O)c2cc(Cl)cc3c2OCCO3)[C@H](O)C1 [WO-00/37461 Co. No. 74, reference compound]"
4,68%,"CCCCN1CC[C@@H](CNC(=O)c2cc(Cl)cc3c2OCCCO3)[C@H](O)C1 [WO-00/37461 Co. No. 119, reference compound]"
5,25%,"COCCCN1CC[C@@H](CNC(=O)c2cc(Cl)cc3c2OCCCO3)[C@H](O)C1 [WO-00/37461 Co. No. 120, reference compound]"
6,30%,"CC(=O)CCCN1CC[C@@H](CNC(=O)c2cc(Cl)cc3c2OCCCO3)[C@H](O)C1 [WO-00/37461 Co. No. 121, reference compound]"
